According to ChEMBL document CHEMBL3745703, “Preclinical characterization of substituted 6,7-dihydro-[1,2,4]triazolo[4,3-a]pyrazin-8(5H)-one P2X7 receptor antagonists” (Bioorg Med Chem Lett, 2016):
pIC50: −log10 of the molar value. In brackets after ≈: the same amount, converted by molar mass.

How the values were obtained:
[1] = Selectivity ratio of IC50 for rat P2X7 receptor to IC50 for human P2X7 receptor
P2X purinoceptor 7 [2] = target: T1, P2X purinoceptor 7 (Homo sapiens, UniProt Q99572); assay: Antagonist activity at human P2X7 receptor expressed in 1321N1 cells assessed as inhibition of Bz-ATP-induced Ca2+ flux after 30 mins by FLIPR assay; assay type: cell-based
T1 sequence (Q99572 whole entry): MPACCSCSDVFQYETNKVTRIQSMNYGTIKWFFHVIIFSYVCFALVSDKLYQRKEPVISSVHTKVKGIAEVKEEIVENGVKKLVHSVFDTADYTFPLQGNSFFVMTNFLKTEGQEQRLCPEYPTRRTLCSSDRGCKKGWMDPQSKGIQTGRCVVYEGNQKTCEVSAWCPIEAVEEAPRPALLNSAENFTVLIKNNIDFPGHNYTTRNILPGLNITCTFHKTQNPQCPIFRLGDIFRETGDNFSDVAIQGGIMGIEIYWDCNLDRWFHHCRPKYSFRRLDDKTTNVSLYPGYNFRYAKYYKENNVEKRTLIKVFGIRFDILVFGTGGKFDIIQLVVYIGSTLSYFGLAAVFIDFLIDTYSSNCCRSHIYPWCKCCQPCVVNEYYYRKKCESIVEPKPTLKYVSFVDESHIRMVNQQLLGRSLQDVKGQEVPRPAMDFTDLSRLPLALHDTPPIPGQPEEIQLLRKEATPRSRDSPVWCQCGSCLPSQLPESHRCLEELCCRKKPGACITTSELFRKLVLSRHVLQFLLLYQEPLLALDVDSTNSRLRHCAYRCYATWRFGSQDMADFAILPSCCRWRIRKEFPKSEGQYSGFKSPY

P2X purinoceptor 7 [3] = target: T2, P2X purinoceptor 7 (Rattus norvegicus, UniProt Q64663); assay: Antagonist activity at rat P2X7 receptor expressed in 1321N1 cells assessed as inhibition of Bz-ATP-induced Ca2+ flux after 30 mins by FLIPR assay; assay type: cell-based
T2 sequence (Q64663 whole entry): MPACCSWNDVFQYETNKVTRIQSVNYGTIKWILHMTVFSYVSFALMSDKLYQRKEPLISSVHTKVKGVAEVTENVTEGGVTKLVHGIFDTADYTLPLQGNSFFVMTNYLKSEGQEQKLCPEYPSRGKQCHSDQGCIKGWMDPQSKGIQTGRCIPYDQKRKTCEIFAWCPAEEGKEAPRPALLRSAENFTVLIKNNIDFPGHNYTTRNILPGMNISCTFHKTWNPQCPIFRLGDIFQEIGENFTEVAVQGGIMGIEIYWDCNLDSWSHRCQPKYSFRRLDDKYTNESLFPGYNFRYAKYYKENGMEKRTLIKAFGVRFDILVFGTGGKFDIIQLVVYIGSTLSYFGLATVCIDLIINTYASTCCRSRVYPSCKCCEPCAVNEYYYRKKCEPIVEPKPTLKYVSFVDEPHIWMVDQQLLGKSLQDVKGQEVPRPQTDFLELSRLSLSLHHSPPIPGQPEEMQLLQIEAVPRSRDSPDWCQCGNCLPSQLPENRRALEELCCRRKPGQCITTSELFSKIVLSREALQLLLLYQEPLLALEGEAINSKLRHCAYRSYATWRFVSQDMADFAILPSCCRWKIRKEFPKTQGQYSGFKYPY

[4] = Plasma concentration in Sprague-Dawley rat at 10 mg/kg, po at Tmax; assay type: ADME, organism-based
[5] = Volume of distribution at steady state in rat at 1 mg/kg, iv and 5 mg/kg, po; assay type: ADME, organism-based; conditions: in vivo, read-out: Vdss
[6] = Ratio of drug level in brain to plasma in Sprague-Dawley rat at 10 mg/kg, po; assay type: ADME, organism-based; conditions: read-out: BPR
[7] = Plasma protein binding in rat at 1 uM; assay type: ADME, cell-free; conditions: read-out: PPB (converted)
[8] = Half life in rat at 1 mg/kg, iv and 5 mg/kg, po; assay type: ADME, organism-based; conditions: in vivo
Rattus norvegicus [9] = species on record: Rattus norvegicus; assay: Ex vivo receptor occupancy at P2X7 receptor in Sprague-Dawley rat hippocampus assessed as inhibition of [3H] A-804598 binding at Tmax by autoradiography; assay type: functional
[10] = Plasma protein binding in human at 1 uM; assay type: ADME, cell-free; conditions: read-out: PPB (converted)
[11] = target: Voltage-gated inwardly rectifying potassium channel KCNH2 (Homo sapiens, UniProt Q12809); assay: Displacement of dofetilide from human ERG channel
Cytochrome P450 2C19 = Cytochrome P450 2C19 (Homo sapiens, UniProt P33261); assay: Inhibition of CYP2C19 (unknown origin); assay type: ADME
[12] = Aqueous equilibrium solubility of the compound at pH 7; assay type: physicochemical
[13] = Aqueous equilibrium solubility of the compound at pH 2; assay type: physicochemical
[14] = Oral bioavailability in rat at 5 mg/kg; assay type: ADME, organism-based; conditions: in vivo
[15] = Apparent permeability from apical to basolateral side in human Caco2 cells; assay type: ADME, cell-based; conditions: Caco-2
Rattus norvegicus [16] = assay: Ex vivo receptor occupancy at P2X7 receptor in po dosed Sprague-Dawley rat hippocampus assessed as inhibition of [3H]JNJ-54232334 binding after 30 mins; assay type: functional
[17] = Unbound brain to plasma partition ratio in Sprague-Dawley rat at 0.8 mg/kg, po; conditions: read-out: K(p,uu,brain)
Rattus norvegicus [18] = species on record: Rattus norvegicus; assay: animal or person; conditions: Sprague-Dawley, P2X7
Description: Ex vivo receptor occupancy at P2X7 receptor in po dosed Sprague-Dawley rat hippocampus assessed as inhibition of [3H]JNJ-54232334 binding by measuring brain level after 30 mins

Rattus norvegicus [19] = species on record: Rattus norvegicus; assay: animal or person; conditions: Sprague-Dawley, P2X7, Plasma
Description: Ex vivo receptor occupancy at P2X7 receptor in po dosed Sprague-Dawley rat hippocampus assessed as inhibition of [3H]JNJ-54232334 binding by measuring plasma level after 30 mins

[20] = Apparent permeability from basolateral to apical side in human Caco2 cells; assay type: ADME, cell-based; conditions: Caco-2
[21] = Brain protein binding in Sprague-Dawley rat at 10 mg/kg, po; assay type: ADME, organism-based; conditions: read-out: PB (converted)
[22] = Plasma protein binding in Sprague-Dawley rat at 10 mg/kg, po; assay type: ADME, organism-based; conditions: read-out: PPB (converted)
[23] = Clearance in rat at 1 mg/kg, iv and 5 mg/kg, po; assay type: ADME, organism-based; conditions: in vivo
[24] = Inhibition of CYP450 (unknown origin); assay type: ADME, Homo sapiens
Brain = assay: Drug uptake in Sprague-Dawley rat brain at 10 mg/kg, po at Tmax; assay type: ADME, organism-based; conditions: in vivo
[25] = Extraction ratio in human liver microsomes at 1 uM; assay type: ADME; conditions: read-out: ERH
[26] = Extraction ratio in rat liver microsomes at 1 uM; assay type: ADME; conditions: read-out: ERH
[27] = Efflux ratio of apparent permeability from basolateral to apical side over apical to basolateral side in human Caco2 cells; assay type: ADME, cell-based; conditions: Caco-2

Voltage-gated inwardly rectifying potassium channel KCNH2, sequence (Q12809 whole entry): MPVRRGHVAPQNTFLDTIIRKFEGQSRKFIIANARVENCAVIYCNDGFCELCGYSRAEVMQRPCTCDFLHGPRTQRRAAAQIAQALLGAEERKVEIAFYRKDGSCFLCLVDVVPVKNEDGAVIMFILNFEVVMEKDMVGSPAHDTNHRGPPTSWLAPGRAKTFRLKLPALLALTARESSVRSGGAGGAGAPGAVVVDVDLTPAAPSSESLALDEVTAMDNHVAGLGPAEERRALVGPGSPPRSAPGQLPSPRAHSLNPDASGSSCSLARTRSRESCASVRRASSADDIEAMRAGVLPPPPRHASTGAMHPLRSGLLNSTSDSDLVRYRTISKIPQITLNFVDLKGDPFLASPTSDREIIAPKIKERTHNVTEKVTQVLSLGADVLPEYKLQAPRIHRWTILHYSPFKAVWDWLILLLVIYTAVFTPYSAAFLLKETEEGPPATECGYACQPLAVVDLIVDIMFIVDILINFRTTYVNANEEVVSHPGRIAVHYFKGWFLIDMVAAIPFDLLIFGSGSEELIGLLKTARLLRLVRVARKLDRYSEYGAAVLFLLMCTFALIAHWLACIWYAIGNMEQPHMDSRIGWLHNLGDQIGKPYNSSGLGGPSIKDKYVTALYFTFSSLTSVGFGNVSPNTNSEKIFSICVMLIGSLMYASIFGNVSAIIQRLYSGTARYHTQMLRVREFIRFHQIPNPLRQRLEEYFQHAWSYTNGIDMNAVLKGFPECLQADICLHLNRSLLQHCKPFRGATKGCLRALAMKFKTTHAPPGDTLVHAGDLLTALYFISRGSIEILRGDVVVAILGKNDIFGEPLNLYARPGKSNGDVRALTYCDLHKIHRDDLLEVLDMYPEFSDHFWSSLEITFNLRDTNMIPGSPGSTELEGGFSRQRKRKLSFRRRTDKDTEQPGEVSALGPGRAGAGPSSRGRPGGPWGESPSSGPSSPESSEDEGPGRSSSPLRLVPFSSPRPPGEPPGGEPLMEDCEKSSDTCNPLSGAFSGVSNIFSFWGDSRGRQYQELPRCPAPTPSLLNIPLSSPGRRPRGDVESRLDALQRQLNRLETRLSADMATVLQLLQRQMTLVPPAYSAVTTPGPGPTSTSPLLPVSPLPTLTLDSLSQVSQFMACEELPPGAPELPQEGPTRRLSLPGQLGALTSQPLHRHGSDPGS
Cytochrome P450 2C19, sequence (P33261 whole entry): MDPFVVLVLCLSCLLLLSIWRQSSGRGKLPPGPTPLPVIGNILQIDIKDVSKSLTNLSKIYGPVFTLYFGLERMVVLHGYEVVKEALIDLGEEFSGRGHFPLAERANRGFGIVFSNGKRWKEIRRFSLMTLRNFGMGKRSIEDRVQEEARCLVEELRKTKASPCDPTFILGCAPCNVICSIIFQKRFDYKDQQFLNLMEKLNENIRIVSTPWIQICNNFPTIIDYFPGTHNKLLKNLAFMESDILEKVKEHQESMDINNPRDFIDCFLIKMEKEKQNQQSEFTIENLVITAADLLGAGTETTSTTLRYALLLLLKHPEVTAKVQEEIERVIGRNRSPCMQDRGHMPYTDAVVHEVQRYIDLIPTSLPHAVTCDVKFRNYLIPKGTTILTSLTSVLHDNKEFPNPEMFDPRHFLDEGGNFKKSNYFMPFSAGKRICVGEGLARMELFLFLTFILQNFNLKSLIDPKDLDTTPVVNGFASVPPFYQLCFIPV

pIC50 (P2X purinoceptor 7 [2])	pIC50 (P2X purinoceptor 7 [3])	Cmax [4]	Vd [5]	fraction unbound at 1 µM [7]	half-life [8]	fraction unbound at 1 µM [10]	solubility thermodynamic [12]	solubility thermodynamic [13]	bioavailability [14]	Papp A→B [15]	Papp B→A [20]	clearance [23]	Drug uptake (Brain)	SMILES	Occ (Rattus norvegicus [9])	also measured
9.30	6.46	–	–	–	–	–	–	–	–	–	–	–	–	C[C@H]1Cn2c(nnc2-c2ccccn2)C(=O)N1Cc1cccc(C(F)(F)F)c1Cl	–	Ratio IC50 [1]: 100
–	–	945 ng/mL	1.5 L/kg	0.1	60 min	0.13	56 µM (≈ 23.7 µg/mL)	89 µM (≈ 37.6 µg/mL)	125%	47 ×10⁻⁶ cm/s	50 ×10⁻⁶ cm/s	19 mL/min/kg	672 ng/mL	C[C@H]1Cn2c(nnc2-c2cnccn2)C(=O)N1Cc1cccc(C(F)(F)F)c1Cl	78%	Kp [6]: 0.7; pIC50 [11]: < 5.00; pIC50 (Cytochrome P450 2C19): 5.14; ED50 (Rattus norvegicus [16]): 0.8 mg/kg; Occ (Rattus norvegicus [16]): Dose-dependent effect; Kp uu [17]: 0.51; EC50 (Rattus norvegicus [18]): 0.066 µg/mL (≈ 0.156 µM); EC50 (Rattus norvegicus [19]): 0.062 µg/mL (≈ 0.147 µM); fraction unbound [21]: 0.046; fraction unbound [22]: 0.096; pIC50 [24]: < 5.00
–	–	2790 ng/mL	3.3 L/kg	0.17	288 min	0.21	201 µM (≈ 85 µg/mL)	176 µM (≈ 74.4 µg/mL)	80%	4.4 ×10⁻⁶ cm/s	64 ×10⁻⁶ cm/s	11 mL/min/kg	116 ng/mL	C[C@H]1Cn2c(nnc2-c2ncccn2)C(=O)N1Cc1cccc(C(F)(F)F)c1Cl	41%	–
6.36	5.06	–	–	–	–	–	–	–	–	–	–	–	–	O=C1c2nnc(-c3cnccn3)n2CCN1Cc1cccc(C(F)(F)F)c1Cl	–	–
< 5.00	< 5.00	–	–	–	–	–	–	–	–	–	–	–	–	O=C1c2nnn(-c3cnccn3)c2CCN1Cc1cccc(C(F)(F)F)c1Cl	–	–
8.72	7.06	1060 ng/mL	5 L/kg	0.17	168 min	0.22	375 µM (≈ 158 µg/mL)	> 400 µM	82%	6.2 ×10⁻⁶ cm/s	73 ×10⁻⁶ cm/s	21 mL/min/kg	43 ng/mL	C[C@H]1Cn2c(nnc2-c2cccnc2)C(=O)N1Cc1cccc(C(F)(F)F)c1Cl	0%	Ratio IC50 [1]: 100; hepatic extraction ratio at 1 µM [25]: 0.3; hepatic extraction ratio at 1 µM [26]: 0.3; efflux ratio [27]: > 10
9.15	–	–	–	–	–	–	–	–	–	–	–	–	–	C[C@H]1Cn2c(nnc2-c2ccc(F)cn2)C(=O)N1Cc1cccc(C(F)(F)F)c1Cl	–	–

The next lines start with the compound.

SMILES	pIC50 (P2X purinoceptor 7 [2])	pIC50 (P2X purinoceptor 7 [3])	Cmax [4]	Vd [5]	fraction unbound at 1 µM [7]	half-life [8]	fraction unbound at 1 µM [10]	solubility thermodynamic [12]	solubility thermodynamic [13]	bioavailability [14]	Papp A→B [15]	Papp B→A [20]	clearance [23]	Drug uptake (Brain)	Occ (Rattus norvegicus [9])	also measured
C[C@H]1Cn2c(nnc2-c2ccn(C)n2)C(=O)N1Cc1cccc(C(F)(F)F)c1Cl	8.38	6.02	–	–	–	–	–	–	–	–	–	–	–	–	–	Ratio IC50 [1]: 100
C[C@H]1Cn2c(nnc2-c2cnccn2)C(=O)N1Cc1ccccc1Cl	–	< 5.00	–	–	–	–	–	–	–	–	–	–	–	–	–	–
C[C@H]1Cn2c(nnc2-c2cc[nH]n2)C(=O)N1Cc1cccc(C(F)(F)F)c1Cl	–	–	1310 ng/mL	4.2 L/kg	0.1	234 min	0.08	95 µM (≈ 39 µg/mL)	41 µM (≈ 16.8 µg/mL)	81%	5.4 ×10⁻⁶ cm/s	65 ×10⁻⁶ cm/s	13 mL/min/kg	41 ng/mL	3%	–
C[C@H]1Cn2c(nnc2-c2cnccn2)C(=O)N1Cc1cccc(C(F)(F)F)c1	8.44	5.38	–	–	–	–	–	–	–	–	–	–	–	–	–	–
C[C@H]1Cn2c(nnc2-c2cnccn2)C(=O)N1Cc1c(Cl)cccc1Cl	–	5.62	–	–	–	–	–	–	–	–	–	–	–	–	–	–
